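Where inhibition never reached the appropriate level, the endpoint shown equals the highest concentration tested. Otherwise, values were interpolated linearly from a five-concentration, 48-hour dose response in 96-well plates. The concentration for 50% growth inhibition is given as GI50. TGI is the concentration that stops growth completely.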
How the values were obtained:
Assay in all cases: NCI-60 cell line screen, 48 h
[1] = system: RXF 393 renal
[2] = system: MDA-N
[3] = system: SK-MEL-2 melanoma
[4] = system: A549 NSCLC
[5] = system: MCF7 breast
[6] = system: NCI/ADR-RES ovarian
[7] = system: SF-539 CNS
[8] = system: MOLT-4 leukemia
[9] = system: OVCAR-4 ovarian
[10] = system: T-47D breast
[11] = system: COLO 205 colon
[12] = system: 786-0 renal
[13] = system: MDA-MB-435
[14] = system: TK-10 renal
[15] = system: SK-OV-3 ovarian
[16] = system: EKVX NSCLC
[17] = system: NCI-H226 lung
[18] = system: U251 CNS
[19] = system: OVCAR-8 ovarian
[20] = system: SF-295 CNS
[21] = system: OVCAR-5 ovarian
[22] = system: DU-145 prostate
[23] = system: UACC-62 melanoma
[24] = system: RPMI-8226 leukemia
[25] = system: ACHN renal
[26] = system: NCI-H522 lung
[27] = system: K-562 leukemia
[28] = system: HCT-15 colon
[29] = system: MALME-3M melanoma
[30] = system: HOP-92 NSCLC
[31] = system: SN12C renal
[32] = system: HOP-62 NSCLC
[33] = system: IGROV1 ovarian
[34] = system: CCRF-CEM leukemia
[35] = system: PC-3 prostate
[36] = system: SK-MEL-5 melanoma
[37] = system: HL-60(TB) leukemia
[38] = system: HCT-116 colon
[39] = system: SNB-19 CNS
[40] = system: SF-268 CNS
[41] = system: A498 renal
[42] = system: CAKI-1 renal
[43] = system: NCI-H23 lung
[44] = system: M14 melanoma
[45] = system: SNB-75 CNS
[46] = system: LOX IMVI melanoma
[47] = system: HCC-2998 colon
[48] = system: BT-549 breast
[49] = system: KM12 colon
[50] = system: NCI-H460 lung
[51] = system: UACC-257 melanoma
[52] = system: UO-31 renal
[53] = system: MDA-MB-231 breast
[54] = system: SK-MEL-28 melanoma
[55] = system: OVCAR-3 ovarian
[56] = system: SR leukemia
[57] = system: SW-620 colon
[58] = system: HT29 colon
[59] = system: HS 578T breast

CC1(C)[C@@H]2C[C@H]1[C@@H](Cc1cccc(C[C@H]3c4cc(-c5ccccn5)ncc4[C@H]4C[C@@H]3C4(C)C)c1)c1cc(-c3ccccn3)ncc12
TGI [1]: > 100 µM | TGI [2]: > 100 µM | TGI [3]: > 100 µM | TGI [4]: > 100 µM | TGI [5]: > 100 µM | TGI [6]: 40.3 µM | TGI [7]: > 100 µM | TGI [8]: > 100 µM | TGI [9]: > 100 µM | TGI [10]: > 49.3 µM | TGI [11]: > 65.5 µM | TGI [12]: > 47.6 µM | TGI [13]: > 100 µM | TGI [14]: > 100 µM | TGI [15]: > 100 µM | TGI [16]: > 60 µM | TGI [17]: > 91.2 µM | TGI [18]: > 100 µM | TGI [19]: > 43.9 µM | TGI [20]: > 100 µM | TGI [21]: > 100 µM | TGI [22]: > 24.7 µM | TGI [23]: > 100 µM | TGI [24]: > 26.4 µM | TGI [25]: > 66.6 µM | TGI [26]: > 70.8 µM | TGI [27]: > 49.1 µM | TGI [28]: > 100 µM | GI50 [29]: 1.78 µM | TGI [29]: 8.14 µM | TGI [30]: 83.4 µM | TGI [31]: > 29.9 µM | TGI [32]: > 100 µM | TGI [33]: > 53.3 µM | TGI [34]: > 100 µM | TGI [35]: > 100 µM | TGI [36]: > 38 µM | TGI [37]: 4.33 µM | TGI [38]: > 47.6 µM | TGI [39]: > 72.6 µM | TGI [40]: > 100 µM | TGI [41]: > 93.2 µM | TGI [42]: 17 µM | TGI [43]: > 77.4 µM | TGI [44]: > 100 µM | TGI [45]: > 100 µM | TGI [46]: > 100 µM | TGI [47]: > 100 µM | TGI [48]: > 100 µM | TGI [49]: > 100 µM | TGI [50]: > 33.4 µM | TGI [51]: > 100 µM | TGI [52]: 8.82 µM | TGI [53]: > 100 µM | TGI [54]: > 100 µM | TGI [55]: > 100 µM | GI50 [56]: > 100 µM | TGI [56]: > 100 µM | TGI [57]: > 61.4 µM | GI50 [58]: 12.5 µM | TGI [58]: > 100 µM

O=C1CSC(c2c[nH]c3ccccc23)N1c1ccc(Cl)cc1 (centres undefined)
TGI [1]: > 100 µM | TGI [2]: > 100 µM | TGI [3]: > 100 µM | TGI [4]: > 100 µM | TGI [5]: > 100 µM | TGI [6]: > 100 µM | TGI [7]: > 100 µM | TGI [8]: > 100 µM | TGI [9]: > 100 µM | TGI [10]: > 100 µM | TGI [11]: > 100 µM | TGI [12]: > 100 µM | TGI [13]: > 100 µM | TGI [14]: > 100 µM | TGI [15]: > 100 µM | TGI [16]: > 100 µM | TGI [17]: > 100 µM | TGI [18]: > 100 µM | TGI [19]: > 100 µM | TGI [20]: > 100 µM | TGI [21]: > 100 µM | TGI [22]: > 100 µM | TGI [23]: > 100 µM | TGI [24]: > 100 µM | TGI [25]: > 100 µM | TGI [27]: > 100 µM | TGI [28]: > 100 µM | TGI [59]: > 100 µM | TGI [30]: > 100 µM | TGI [31]: > 100 µM | TGI [32]: > 100 µM | TGI [33]: > 100 µM | TGI [36]: > 100 µM | TGI [37]: > 100 µM | TGI [38]: > 100 µM | TGI [39]: > 100 µM | TGI [40]: > 100 µM | TGI [41]: > 100 µM | TGI [43]: > 100 µM | TGI [44]: > 100 µM | TGI [45]: > 100 µM | TGI [47]: > 100 µM | TGI [48]: > 100 µM | TGI [49]: > 100 µM | TGI [50]: > 100 µM | TGI [51]: > 100 µM | TGI [52]: > 100 µM | TGI [53]: > 100 µM | TGI [54]: > 100 µM | TGI [55]: > 100 µM | TGI [57]: > 100 µM | TGI [58]: > 100 µM

OCC1COc2cc(Cl)c(Cl)cc2O1 (centres undefined)
TGI [1]: > 10 µM | TGI [2]: > 10 µM | TGI [3]: > 10 µM | TGI [4]: > 10 µM | TGI [5]: > 10 µM | TGI [6]: > 10 µM | TGI [7]: > 10 µM | TGI [8]: > 10 µM | TGI [9]: > 10 µM | TGI [10]: > 10 µM | TGI [11]: > 10 µM | TGI [13]: > 10 µM | TGI [14]: > 10 µM | TGI [15]: > 10 µM | TGI [16]: > 10 µM | TGI [17]: > 10 µM | TGI [18]: > 10 µM | TGI [19]: > 10 µM | TGI [20]: > 10 µM | TGI [21]: > 10 µM | TGI [22]: > 10 µM | TGI [23]: > 10 µM | TGI [24]: > 10 µM | TGI [25]: > 10 µM | TGI [26]: > 10 µM | TGI [27]: > 10 µM | TGI [28]: > 10 µM | TGI [59]: > 10 µM | TGI [29]: > 10 µM | TGI [31]: > 10 µM | TGI [32]: > 10 µM | TGI [33]: > 10 µM | TGI [34]: > 10 µM | TGI [35]: > 10 µM | TGI [36]: > 10 µM | TGI [37]: > 10 µM | TGI [38]: > 10 µM | TGI [39]: > 10 µM | TGI [40]: > 10 µM | TGI [41]: > 10 µM | TGI [42]: > 10 µM | TGI [43]: > 10 µM | TGI [44]: > 10 µM | TGI [45]: > 10 µM | TGI [46]: > 10 µM | TGI [47]: > 10 µM | TGI [49]: > 10 µM | TGI [50]: > 10 µM | TGI [52]: > 10 µM | TGI [53]: > 10 µM | TGI [54]: > 10 µM | TGI [55]: > 10 µM | TGI [56]: > 10 µM | TGI [57]: > 10 µM | TGI [58]: > 10 µM

C1CSCCSCCCSC2CCCCC2SC1 (centres undefined)
TGI [2]: > 100 µM | TGI [4]: > 100 µM | TGI [5]: > 100 µM | TGI [6]: > 100 µM | TGI [7]: > 100 µM | TGI [8]: > 100 µM | TGI [9]: > 100 µM | TGI [10]: > 100 µM | TGI [11]: > 100 µM | TGI [12]: > 100 µM | TGI [13]: > 100 µM | TGI [14]: > 100 µM | TGI [15]: > 100 µM | TGI [16]: > 100 µM | TGI [18]: > 100 µM | TGI [19]: > 100 µM | TGI [20]: > 100 µM | TGI [21]: > 100 µM | TGI [22]: > 100 µM | TGI [23]: > 100 µM | TGI [24]: > 100 µM | TGI [26]: > 100 µM | TGI [27]: > 100 µM | TGI [28]: > 100 µM | TGI [30]: > 100 µM | TGI [31]: > 100 µM | TGI [32]: > 100 µM | TGI [33]: > 100 µM | TGI [34]: > 100 µM | TGI [35]: > 100 µM | TGI [36]: > 100 µM | TGI [37]: 95.3 µM | TGI [38]: > 100 µM | TGI [39]: > 100 µM | TGI [40]: > 100 µM | TGI [43]: > 100 µM | TGI [44]: > 100 µM | TGI [45]: > 100 µM | TGI [46]: > 100 µM | TGI [47]: > 100 µM | TGI [48]: > 100 µM | TGI [49]: > 100 µM | TGI [50]: > 100 µM | TGI [51]: > 100 µM | TGI [52]: > 100 µM | TGI [53]: > 100 µM | TGI [54]: > 100 µM | TGI [55]: > 100 µM | TGI [56]: > 100 µM | TGI [57]: > 100 µM | TGI [58]: 60.9 µM
